How the values were obtained:
[1] = system: patients with treatment-resistant major depressive disorder (TRD); assay: Phase 1/2 clinical trial of inhaled 5-MeO-DMT in TRD (MADRS, BPRS, safety); conditions: for patients experiencing at least one ADR: n=4, all ADRs mild and resolved spontaneously
Method: Patients were assigned to different groups. In the context of the present invention, the group who received a single, 12 mg dose and the group who underwent an intra-day individualized dosing regimen (IDR) that allowed for multiple, escalating doses (6 mg, 12 mg and 18 mg) within a single day, driven by the intensity of the patient-reported psychedelic experience are of interest.
The data gathered include the assessment of the treated patients against several scales including the Montgomery-Åsberg Depression Rating Scale (MADRS) and the Brief Psychiatric Rating Scale (BPRS).
This trial was designed in two parts. Part A was an open-label, single-arm, single-dose Phase 1 trial with two dose levels (12 mg (n=4) and 18 mg (n=4)). […] The primary endpoint of Part B was to assess the effects on the severity of depression, as assessed by the proportion of patients in remission on day seven after dosing, defined as a MADRS total score of less than or equal to 10.

[2] = Pharmacokinetics of 5-MeO-DMT and bufotenine after inhalation; format: in vivo, human
Method: Blood samples were obtained at 1; 2; 4; 7; 10; 15; 20; 30; 45 min and 1; 1.5; 2; 3; 4 hours after administration.
PK parameters were generated by algebraic analysis of the concentration versus time plots for each individual. The analysis was carried out using the software Phoenix WinNonlin 6.3.

[3] = TRD, IDR 6/12/18 mg inhaled, sum n=8, 2 h after last dose, baseline 26
[4] = TRD, IDR 6/12/18 mg inhaled, sum n=8, 2 h after last dose, baseline 28
[5] = TRD, IDR 6/12/18 mg inhaled, sum n=8, 3 h after last dose, baseline 37
[6] = TRD, IDR 6/12/18 mg inhaled, sum n=8, day 1, baseline 25
[7] = TRD, IDR 6/12/18 mg inhaled, sum n=8, day 1, baseline 26
[8] = TRD, IDR 6/12/18 mg inhaled, sum n=8, day 1, baseline 37
[9] = TRD, IDR 6/12/18 mg inhaled, sum n=8, day 7, baseline 25
[10] = TRD, IDR 6/12/18 mg inhaled, sum n=8, day 7, baseline 26
[11] = TRD, IDR 6/12/18 mg inhaled, sum n=8, day 7, baseline 30
[12] = TRD, IDR 6/12/18 mg inhaled, sum n=8, day 7, baseline 37
[13] = TRD, single 12 mg inhaled, sum n=4, 2 h after dose, baseline 13
[14] = TRD, single 12 mg inhaled, sum n=4, 2 h after dose, baseline 16
[15] = TRD, single 12 mg inhaled, sum n=4, 3 h after dose, baseline 18
[16] = TRD, single 12 mg inhaled, sum n=4, 3 h after dose, baseline 25
[17] = TRD, single 12 mg inhaled, sum n=4, day 1, baseline 12
[18] = TRD, single 12 mg inhaled, sum n=4, day 1, baseline 13
[19] = TRD, single 12 mg inhaled, sum n=4, day 1, baseline 16
[20] = TRD, single 12 mg inhaled, sum n=4, day 1, baseline 25
[21] = TRD, single 12 mg inhaled, sum n=4, day 7, baseline 12
[22] = TRD, single 12 mg inhaled, sum n=4, day 7, baseline 13
[23] = TRD, single 12 mg inhaled, sum n=4, day 7, baseline 16
[24] = TRD, single 12 mg inhaled, sum n=4, day 7, baseline 25

## COc1ccc2[nH]cc(CCN(C)C)c2c1 [5-MeO-DMT]
[1]; Part A, single 12 mg inhaled
  patients experiencing at least one ADR: 3 of 4
[1]; Part A, single 12 mg or 18 mg inhaled
  SAEs: No SAEs were reported
[1]; Part A, single 18 mg inhaled
  patients experiencing at least one ADR: 3 of 4
[1]; Part B, IDR 6/12/18 mg inhaled, n=8
  SAEs: No SAEs were reported
[1]; TRD, IDR 6/12/18 mg inhaled, sum n=8, 2 h after last dose, baseline 11
  MADRS Suicidal Thoughts score: 3
[1]; [3]
  MADRS Inner Tension percentage improvement: 58%
  MADRS Inner Tension score: 11
[1]; TRD, IDR 6/12/18 mg inhaled, sum n=8, 2 h after last dose, baseline 27
  MADRS Lassitude score: 10
[1]; [4]
  MADRS Pessimistic Thoughts percentage improvement: 75.00%
  MADRS Pessimistic Thoughts score: 7
[1]; TRD, IDR 6/12/18 mg inhaled, sum n=8, 2 h after last dose, baseline 30
  MADRS Concentration Difficulties score: 11
[1]; TRD, IDR 6/12/18 mg inhaled, sum n=8, 2 h after last dose, baseline 36
  MADRS Inability to Feel score: 12
[1]; TRD, IDR 6/12/18 mg inhaled, sum n=8, 3 h after last dose, baseline 13
  BPRS Emotional Withdrawal score: 8
[1]; TRD, IDR 6/12/18 mg inhaled, sum n=8, 3 h after last dose, baseline 15
  BPRS Blunted Affect score: 11
[1]; TRD, IDR 6/12/18 mg inhaled, sum n=8, 3 h after last dose, baseline 16
  BPRS Tension score: 11
[1]; TRD, IDR 6/12/18 mg inhaled, sum n=8, 3 h after last dose, baseline 34
  BPRS Guilt Feelings score: 14
[1]; [5]
  BPRS Anxiety percentage improvement: 49%
  BPRS Anxiety score: 19
[1]; TRD, IDR 6/12/18 mg inhaled, sum n=8, day 1, baseline 11
  MADRS Suicidal Thoughts score: 1
[1]; TRD, IDR 6/12/18 mg inhaled, sum n=8, day 1, baseline 13
  BPRS Emotional Withdrawal score: 8
[1]; TRD, IDR 6/12/18 mg inhaled, sum n=8, day 1, baseline 15
  BPRS Blunted Affect score: 8
[1]; TRD, IDR 6/12/18 mg inhaled, sum n=8, day 1, baseline 16
  BPRS Tension score: 11
[1]; [6]
  MADRS Reduced Sleep percentage improvement: 52%
  MADRS Reduced Sleep score: 12
[1]; [7]
  MADRS Inner Tension percentage improvement: 77%
  MADRS Inner Tension score: 6
[1]; TRD, IDR 6/12/18 mg inhaled, sum n=8, day 1, baseline 27
  MADRS Lassitude score: 5
[1]; TRD, IDR 6/12/18 mg inhaled, sum n=8, day 1, baseline 28
  MADRS Pessimistic Thoughts score: 4
[1]; TRD, IDR 6/12/18 mg inhaled, sum n=8, day 1, baseline 30
  MADRS Concentration Difficulties score: 1
[1]; TRD, IDR 6/12/18 mg inhaled, sum n=8, day 1, baseline 34
  BPRS Guilt Feelings score: 11
[1]; TRD, IDR 6/12/18 mg inhaled, sum n=8, day 1, baseline 36
  MADRS Inability to Feel score: 2
[1]; [8]
  BPRS Anxiety percentage improvement: 57%
  BPRS Anxiety score: 16
[1]; TRD, IDR 6/12/18 mg inhaled, sum n=8, day 7, baseline 11
  MADRS Suicidal Thoughts score: 3
[1]; TRD, IDR 6/12/18 mg inhaled, sum n=8, day 7, baseline 13
  BPRS Emotional Withdrawal score: 8
[1]; TRD, IDR 6/12/18 mg inhaled, sum n=8, day 7, baseline 15
  BPRS Blunted Affect score: 8
[1]; TRD, IDR 6/12/18 mg inhaled, sum n=8, day 7, baseline 16
  BPRS Tension score: 10
[1]; [9]
  MADRS Reduced Sleep percentage improvement: 64%
  MADRS Reduced Sleep score: 9
[1]; [10]
  MADRS Inner Tension percentage improvement: 54%
  MADRS Inner Tension score: 12
[1]; TRD, IDR 6/12/18 mg inhaled, sum n=8, day 7, baseline 27
  MADRS Lassitude score: 3
[1]; TRD, IDR 6/12/18 mg inhaled, sum n=8, day 7, baseline 28
  MADRS Pessimistic Thoughts score: 3
[1]; [11]
  MADRS Concentration Difficulties percentage improvement: 70.00%
  MADRS Concentration Difficulties score: 9
[1]; TRD, IDR 6/12/18 mg inhaled, sum n=8, day 7, baseline 34
  BPRS Guilt Feelings score: 10
[1]; TRD, IDR 6/12/18 mg inhaled, sum n=8, day 7, baseline 36
  MADRS Inability to Feel score: 6
[1]; [12]
  BPRS Anxiety percentage improvement: 54%
  BPRS Anxiety score: 17
[1]; TRD, single 12 mg inhaled, sum n=4, 2 h after dose, baseline 8
  MADRS Suicidal Thoughts score: 3
[1]; [13]
  MADRS Inner Tension percentage improvement: 85%
  MADRS Inner Tension score: 2
[1]; [14]
  MADRS Concentration Difficulties score: 7
  MADRS Inability to Feel score: 9
  MADRS Lassitude score: 10
  MADRS Pessimistic Thoughts percentage improvement: 50.00%
  MADRS Pessimistic Thoughts score: 8
[1]; TRD, single 12 mg inhaled, sum n=4, 3 h after dose, baseline 11
  BPRS Blunted Affect score: 8
[1]; TRD, single 12 mg inhaled, sum n=4, 3 h after dose, baseline 13
  BPRS Emotional Withdrawal score: 11
[1]; TRD, single 12 mg inhaled, sum n=4, 3 h after dose, baseline 14
  BPRS Tension score: 9
[1]; [15]
  BPRS Guilt Feelings percentage improvement: 50.00%
  BPRS Guilt Feelings score: 9
[1]; [16]
  BPRS Anxiety percentage improvement: 56%
  BPRS Anxiety score: 11
[1]; TRD, single 12 mg inhaled, sum n=4, day 1, baseline 8
  MADRS Suicidal Thoughts score: 5
[1]; TRD, single 12 mg inhaled, sum n=4, day 1, baseline 11
  BPRS Blunted Affect score: 6
[1]; [17]
  MADRS Reduced Sleep percentage improvement: 17%
  MADRS Reduced Sleep score: 10
[1]; [18]
  BPRS Emotional Withdrawal score: 8
  MADRS Inner Tension percentage improvement: 77%
  MADRS Inner Tension score: 3
[1]; TRD, single 12 mg inhaled, sum n=4, day 1, baseline 14
  BPRS Tension score: 6
[1]; [19]
  MADRS Concentration Difficulties score: 2
  MADRS Inability to Feel score: 1
  MADRS Lassitude percentage improvement: 100.00%
  MADRS Lassitude score: 0
  MADRS Pessimistic Thoughts score: 7
[1]; TRD, single 12 mg inhaled, sum n=4, day 1, baseline 18
  BPRS Guilt Feelings score: 5
[1]; [20]
  BPRS Anxiety percentage improvement: 76%
  BPRS Anxiety score: 6
[1]; TRD, single 12 mg inhaled, sum n=4, day 7, baseline 8
  MADRS Suicidal Thoughts score: 7
[1]; TRD, single 12 mg inhaled, sum n=4, day 7, baseline 11
  BPRS Blunted Affect score: 5
[1]; [21]
  MADRS Reduced Sleep percentage improvement: 50%
  MADRS Reduced Sleep score: 6
[1]; [22]
  BPRS Emotional Withdrawal score: 6
  MADRS Inner Tension percentage improvement: 62%
  MADRS Inner Tension score: 5
[1]; TRD, single 12 mg inhaled, sum n=4, day 7, baseline 14
  BPRS Tension score: 6
[1]; [23]
  MADRS Concentration Difficulties score: 3
  MADRS Inability to Feel score: 1
  MADRS Lassitude score: 3
  MADRS Pessimistic Thoughts percentage improvement: 50.00%
  MADRS Pessimistic Thoughts score: 8
[1]; TRD, single 12 mg inhaled, sum n=4, day 7, baseline 18
  BPRS Guilt Feelings score: 5
[1]; [24]
  BPRS Anxiety percentage improvement: 76%
  BPRS Anxiety score: 6
[2]; 3 hours after inhalation, whole dose range 6, 12, 18 mg
  detectability in the plasma: no longer detectable
[2]; inhalation, uptitration
  pharmacokinetic measurements with uptitration dosing schemes compared with single doses: Substantially similar results were obtained
[2]; repeated inhalation within a time frame of 1 to 4 hours
  accumulation upon repeated administration: No accumulation is observed

— patent publication US20250241891A1, “TREATMENT OF ANXIETY” (GH RESEARCH IRELAND LIMITED, priority 2022, published 2025)
